Measured values from the supplement of paper PMC13207355.

Columns and labels:
Conditions in all cases: exposure time: 72 h
[1] = system: E13 (patient-derived glioblastoma stem cells of classical subtype); experiment: surviving fraction (nuclei count normalised to DMSO); higher = more cells surviving (less toxic)
[2] = system: E21 (patient-derived glioblastoma stem cells of mesenchymal subtype); experiment: as above
[3] = system: E28 (patient-derived glioblastoma stem cells of classical subtype); experiment: as above
[4] = system: E31 (patient-derived glioblastoma stem cells of proneural subtype); experiment: as above
[5] = system: E34 (patient-derived glioblastoma stem cells of proneural subtype); experiment: as above
[6] = system: E57 (patient-derived glioblastoma stem cells of mesenchymal subtype); experiment: as above
[7] = system: FT3469 (normal neural stem cell line); experiment: as above
[8] = system: E13; experiment: phenotypic distance (Euclidean, principal components) from DMSO controls (arbitrary units); higher = stronger morphological change
[9] = system: E21; experiment: as above
[10] = system: E28; experiment: as above
[11] = system: E31; experiment: as above
[12] = system: E34; experiment: as above
[13] = system: E57; experiment: as above
[14] = system: FT3469; experiment: as above
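Throughout, for phenotypic distance (Euclidean, principal components) from DMSO controls: cell Painting imaging in 384-well plates, CellProfiler features reduced to at least 20 principal components, Euclidean distance versus same-plate DMSO vehicle wells (0.1% v/v), median over six images per well.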
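Throughout, for surviving fraction (nuclei count normalised to DMSO): nuclei counted by high-content imaging of Hoechst-stained cells in laminin-coated 384-well plates, relative to 0.1% DMSO vehicle wells, with staurosporine as cell-death control.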

CC(=O)CC(c1ccc([N+](=O)[O-])cc1)c1c(O)c2ccccc2oc1=O (stereo unspecified) [Acenocoumarol]
surviving fraction ([1]; 4.1 nM): 0.91 | surviving fraction ([1]; 12.3 nM): 1.04 | surviving fraction ([1]; 37 nM): 1.05 | surviving fraction ([1]; 111.1 nM): 1.03 | surviving fraction ([1]; 333.3 nM): 0.873 | surviving fraction ([1]; 1000 nM): 0.931 | surviving fraction ([1]; 3000 nM): 0.767 | surviving fraction ([2]; 4.1 nM): 0.926 | surviving fraction ([2]; 12.3 nM): 1.09 | surviving fraction ([2]; 37 nM): 0.897 | surviving fraction ([2]; 111.1 nM): 0.931 | surviving fraction ([2]; 333.3 nM): 0.865 | surviving fraction ([2]; 1000 nM): 0.954 | surviving fraction ([2]; 3000 nM): 0.852 | surviving fraction ([3]; 4.1 nM): 0.905 | surviving fraction ([3]; 12.3 nM): 0.999 | surviving fraction ([3]; 37 nM): 0.918 | surviving fraction ([3]; 111.1 nM): 0.967 | surviving fraction ([3]; 333.3 nM): 1.06 | surviving fraction ([3]; 1000 nM): 0.92 | surviving fraction ([3]; 3000 nM): 0.901 | surviving fraction ([4]; 4.1 nM): 0.989 | surviving fraction ([4]; 12.3 nM): 0.923 | surviving fraction ([4]; 37 nM): 0.848 | surviving fraction ([4]; 111.1 nM): 0.934 | surviving fraction ([4]; 333.3 nM): 1.03 | surviving fraction ([4]; 1000 nM): 0.955 | surviving fraction ([4]; 3000 nM): 0.809 | surviving fraction ([5]; 4.1 nM): 0.771 | surviving fraction ([5]; 12.3 nM): 1.01 | surviving fraction ([5]; 37 nM): 1.04 | surviving fraction ([5]; 111.1 nM): 1.06 | surviving fraction ([5]; 333.3 nM): 0.935 | surviving fraction ([5]; 1000 nM): 0.918 | surviving fraction ([5]; 3000 nM): 0.892 | surviving fraction ([6]; 4.1 nM): 1.08 | surviving fraction ([6]; 12.3 nM): 1.09 | surviving fraction ([6]; 37 nM): 1.02 | surviving fraction ([6]; 111.1 nM): 1.07 | surviving fraction ([6]; 333.3 nM): 1.03 | surviving fraction ([6]; 1000 nM): 0.983 | surviving fraction ([6]; 3000 nM): 1.02 | surviving fraction ([7]; 4.1 nM): 1.01 | surviving fraction ([7]; 12.3 nM): 1.07 | surviving fraction ([7]; 37 nM): 0.881 | surviving fraction ([7]; 111.1 nM): 1.12 | surviving fraction ([7]; 333.3 nM): 0.823 | surviving fraction ([7]; 1000 nM): 0.849 | surviving fraction ([7]; 3000 nM): 0.771 | phenotypic distance ([8]; 4.1 nM): 0.426 | phenotypic distance ([8]; 12.3 nM): 0.665 | phenotypic distance ([8]; 37 nM): 2.8 | phenotypic distance ([8]; 111.1 nM): 0.663 | phenotypic distance ([8]; 333.3 nM): 0.594 | phenotypic distance ([8]; 1000 nM): 0.586 | phenotypic distance ([8]; 3000 nM): 0.934 | phenotypic distance ([9]; 4.1 nM): 1.01 | phenotypic distance ([9]; 12.3 nM): 0.655 | phenotypic distance ([9]; 37 nM): 0.963 | phenotypic distance ([9]; 111.1 nM): 0.772 | phenotypic distance ([9]; 333.3 nM): 0.946 | phenotypic distance ([9]; 1000 nM): 0.684 | phenotypic distance ([9]; 3000 nM): 1.11 | phenotypic distance ([10]; 4.1 nM): 1.02 | phenotypic distance ([10]; 12.3 nM): 0.39 | phenotypic distance ([10]; 37 nM): 0.547 | phenotypic distance ([10]; 111.1 nM): 0.548 | phenotypic distance ([10]; 333.3 nM): 0.562 | phenotypic distance ([10]; 1000 nM): 1.03 | phenotypic distance ([10]; 3000 nM): 0.857 | phenotypic distance ([11]; 4.1 nM): 0.829 | phenotypic distance ([11]; 12.3 nM): 0.483 | phenotypic distance ([11]; 37 nM): 1.07 | phenotypic distance ([11]; 111.1 nM): 0.701 | phenotypic distance ([11]; 333.3 nM): 0.894 | phenotypic distance ([11]; 1000 nM): 0.819 | phenotypic distance ([11]; 3000 nM): 1.06 | phenotypic distance ([12]; 4.1 nM): 1.2 | phenotypic distance ([12]; 12.3 nM): 0.513 | phenotypic distance ([12]; 37 nM): 1.59 | phenotypic distance ([12]; 111.1 nM): 0.677 | phenotypic distance ([12]; 333.3 nM): 0.562 | phenotypic distance ([12]; 1000 nM): 0.954 | phenotypic distance ([12]; 3000 nM): 0.563 | phenotypic distance ([13]; 4.1 nM): 0.94 | phenotypic distance ([13]; 12.3 nM): 1.02 | phenotypic distance ([13]; 37 nM): 1.11 | phenotypic distance ([13]; 111.1 nM): 1.36 | phenotypic distance ([13]; 333.3 nM): 0.492 | phenotypic distance ([13]; 1000 nM): 0.718 | phenotypic distance ([13]; 3000 nM): 0.744 | phenotypic distance ([14]; 4.1 nM): 1.4 | phenotypic distance ([14]; 12.3 nM): 0.712 | phenotypic distance ([14]; 37 nM): 1.02 | phenotypic distance ([14]; 111.1 nM): 0.751 | phenotypic distance ([14]; 333.3 nM): 0.862 | phenotypic distance ([14]; 1000 nM): 0.691 | phenotypic distance ([14]; 3000 nM): 0.764

CCCSc1ccc2[nH]c(NC(=O)OC)nc2c1 [Albendazole]
surviving fraction ([1]; 4.1 nM): 0.787 | surviving fraction ([1]; 12.3 nM): 0.877 | surviving fraction ([1]; 37 nM): 0.931 | surviving fraction ([1]; 111.1 nM): 0.655 | surviving fraction ([1]; 333.3 nM): 0.439 | surviving fraction ([1]; 1000 nM): 0.373 | surviving fraction ([1]; 3000 nM): 0.222 | surviving fraction ([2]; 4.1 nM): 0.887 | surviving fraction ([2]; 12.3 nM): 0.807 | surviving fraction ([2]; 37 nM): 0.834 | surviving fraction ([2]; 111.1 nM): 0.804 | surviving fraction ([2]; 333.3 nM): 0.755 | surviving fraction ([2]; 1000 nM): 0.169 | surviving fraction ([2]; 3000 nM): 0.118 | surviving fraction ([3]; 4.1 nM): 0.86 | surviving fraction ([3]; 12.3 nM): 0.988 | surviving fraction ([3]; 37 nM): 0.734 | surviving fraction ([3]; 111.1 nM): 1.04 | surviving fraction ([3]; 333.3 nM): 0.719 | surviving fraction ([3]; 1000 nM): 0.536 | surviving fraction ([3]; 3000 nM): 0.28 | surviving fraction ([4]; 4.1 nM): 0.993 | surviving fraction ([4]; 12.3 nM): 0.833 | surviving fraction ([4]; 37 nM): 0.874 | surviving fraction ([4]; 111.1 nM): 0.758 | surviving fraction ([4]; 333.3 nM): 0.408 | surviving fraction ([4]; 1000 nM): 0.186 | surviving fraction ([4]; 3000 nM): 0.0928 | surviving fraction ([5]; 4.1 nM): 0.934 | surviving fraction ([5]; 12.3 nM): 1.06 | surviving fraction ([5]; 37 nM): 0.937 | surviving fraction ([5]; 111.1 nM): 0.927 | surviving fraction ([5]; 333.3 nM): 0.656 | surviving fraction ([5]; 1000 nM): 0.476 | surviving fraction ([5]; 3000 nM): 0.439 | surviving fraction ([6]; 4.1 nM): 1.02 | surviving fraction ([6]; 12.3 nM): 0.99 | surviving fraction ([6]; 37 nM): 0.873 | surviving fraction ([6]; 111.1 nM): 0.909 | surviving fraction ([6]; 333.3 nM): 0.715 | surviving fraction ([6]; 1000 nM): 0.257 | surviving fraction ([6]; 3000 nM): 0.0825 | surviving fraction ([7]; 4.1 nM): 0.783 | surviving fraction ([7]; 12.3 nM): 0.812 | surviving fraction ([7]; 37 nM): 0.76 | surviving fraction ([7]; 111.1 nM): 0.924 | surviving fraction ([7]; 333.3 nM): 0.725 | surviving fraction ([7]; 1000 nM): 0.662 | surviving fraction ([7]; 3000 nM): 0.504 | phenotypic distance ([8]; 4.1 nM): 1.01 | phenotypic distance ([8]; 12.3 nM): 0.56 | phenotypic distance ([8]; 37 nM): 0.737 | phenotypic distance ([8]; 111.1 nM): 2.95 | phenotypic distance ([8]; 333.3 nM): 4.43 | phenotypic distance ([8]; 1000 nM): 4.68 | phenotypic distance ([8]; 3000 nM): 7.36 | phenotypic distance ([9]; 4.1 nM): 1.02 | phenotypic distance ([9]; 12.3 nM): 0.918 | phenotypic distance ([9]; 37 nM): 1.01 | phenotypic distance ([9]; 111.1 nM): 1.35 | phenotypic distance ([9]; 333.3 nM): 3.4 | phenotypic distance ([9]; 1000 nM): 7.12 | phenotypic distance ([9]; 3000 nM): 8.62 | phenotypic distance ([10]; 4.1 nM): 0.748 | phenotypic distance ([10]; 12.3 nM): 0.904 | phenotypic distance ([10]; 37 nM): 0.875 | phenotypic distance ([10]; 111.1 nM): 1.25 | phenotypic distance ([10]; 333.3 nM): 2.28 | phenotypic distance ([10]; 1000 nM): 3.22 | phenotypic distance ([10]; 3000 nM): 3.85 | phenotypic distance ([11]; 4.1 nM): 0.384 | phenotypic distance ([11]; 12.3 nM): 0.712 | phenotypic distance ([11]; 37 nM): 0.564 | phenotypic distance ([11]; 111.1 nM): 1.13 | phenotypic distance ([11]; 333.3 nM): 3.4 | phenotypic distance ([11]; 1000 nM): 5.94 | phenotypic distance ([11]; 3000 nM): 5.22 | phenotypic distance ([12]; 4.1 nM): 0.51 | phenotypic distance ([12]; 12.3 nM): 1.47 | phenotypic distance ([12]; 37 nM): 1.32 | phenotypic distance ([12]; 111.1 nM): 0.857 | phenotypic distance ([12]; 333.3 nM): 2.54 | phenotypic distance ([12]; 1000 nM): 3.76 | phenotypic distance ([12]; 3000 nM): 5.5 | phenotypic distance ([13]; 4.1 nM): 0.729 | phenotypic distance ([13]; 12.3 nM): 1.11 | phenotypic distance ([13]; 37 nM): 0.859 | phenotypic distance ([13]; 111.1 nM): 1.5 | phenotypic distance ([13]; 333.3 nM): 3.52 | phenotypic distance ([13]; 1000 nM): 5.59 | phenotypic distance ([13]; 3000 nM): 4.71 | phenotypic distance ([14]; 4.1 nM): 0.912 | phenotypic distance ([14]; 12.3 nM): 1.05 | phenotypic distance ([14]; 37 nM): 0.721 | phenotypic distance ([14]; 111.1 nM): 1.33 | phenotypic distance ([14]; 333.3 nM): 2.27 | phenotypic distance ([14]; 1000 nM): 3.43 | phenotypic distance ([14]; 3000 nM): 3.98
